With `COc1cc(C(=O)O)ccc1CNC(=O)C1Cc2ccccc2N1S(=O)(=O)c1ccc(-c2cccc(C(F)(F)F)c2)cc1` (stereo unspecified) the melting point was 108 to 120 °C. Work on `COc1ccc(N2CCN(c3c(C)c(C)c4c(c3C)C(c3ccc(C)nc3)C(C)(C)O4)CC2)cc1` (stereo unspecified) yielded a melting point of 131 to 133 °C. Molecule `COc1ccc(C(=O)Nc2ccc(C(C)(C)CNC(C)=O)c(-c3cccnc3)c2)cc1OC` has a melting point of 234 to 237 °C. Molecule `O=C(O)/C=C/c1ccn(C2CCCCCC2)c1` has a melting point of 138 to 140 °C. Molecule `CSc1ccc2c(n1)C(c1ccccc1)=[N+]([O-])Cc1nncn1-2` has a melting point of 190 to 192 °C. With `CC(C)n1nc(-c2ccc(OCC(N)=O)nc2-c2ccccc2)ccc1=O` the melting point was 137 to 138 °C. Work on `O=Cc1ccc(NCc2cccc(Cl)c2)cn1` yielded a melting point of 102 to 105 °C. `COC(=O)[C@@]12CN(Cc3ccccc3)C[C@@H]1[C@@](O)(c1ccc(SC)cc1)CC[C@H]2c1ccccc1` (racemic) showed a melting point of 124 to 126 °C. For `COC(=O)NC1(c2ccc(C(C)C)cc2OC)C(=O)c2ccccc2C1=O`, the melting point was 153 to 155 °C. In the case of `CCOc1ccccc1OCCN(CCCC(OCC)c1ccc(F)cc1)C(C)=O` (stereo unspecified), the melting point is reported as 58 to 60 °C. Work on `Nc1ccc(S(=O)(=O)Nc2ccn(CC3CC3)c(=O)n2)cc1` yielded a melting point of 87 to 95 °C. Work on `Cc1ccc(C2=NN(C(=O)c3cccnc3)CC2)cc1` yielded a melting point of 100 to 102 °C. In the case of `CCOC(=O)Cc1[nH]c(C(=O)c2ccccc2)c(C)c1C(=O)O`, the melting point is reported as 183 to 185 °C. In the case of `Cn1c(C(=O)NC2CCCCC2)nc(-c2ccc(Cl)cc2Cl)c1-c1ccc(Cl)cc1`, the melting point is reported as 165 °C. Work on `Clc1cc(Cl)c2cccc3c2c1N=C3NCCCCCCCCCCn1ccnc1` yielded a melting point of 129 to 131 °C. Work on `O=C(O)c1ccccc1OCCCN1C(=O)c2ccccc2C1=O` yielded a melting point of 155 to 157 °C. For `Cc1nc(Nc2c([N+](=O)[O-])cc([N+](=O)[O-])cc2C(F)(F)F)c(Cl)c(C)c1Cl`, the melting point was 131 to 133 °C. `COc1cc2c(cc1O)CCN(Cc1ccccn1)C2` showed a melting point of 137 to 138 °C. For `COc1cc2ncc(N[C@H]3CC[C@@H](O)CC3)nc2cc1OC`, the melting point was 65 to 67 °C. `Cc1cn(-c2cc(C)c(N)c(C#N)c2)c(C)n1` gave a melting point of 214 to 217 °C. `CCOc1ccnc(CSc2nc3ccc(C(F)(F)F)cc3[nH]2)c1C` gave a melting point of 173 to 177 °C. `CC[C@@H](NC(=O)N1CC(=O)NCC(Cc2cc(Cl)ccc2OC)C1=O)C(=O)Nc1ccc(C)c(C(=O)O)c1` (stereo partly specified) gave a melting point of 132 to 134 °C. With `Fc1ccc(Cl)c2oc(CCC#Cc3ccccn3)nc12` the melting point was 102 to 103 °C. With `CC(=O)OCC1OC(n2c3ncccc3c3c4c(c5c6cccnc6[nH]c5c32)C(=O)N(CO)C4=O)C(OC(C)=O)C(OC(C)=O)C1OC(C)=O` (stereo unspecified) the melting point was > 300 °C. `COC1=NS(=O)(=O)N=C1OC` showed a melting point of 200 to 202 °C. `CCC1C(=O)N(CCCCN2CCN(c3ccccn3)CC2)c2cc(F)ccc21` (stereo unspecified) showed a melting point of 137 to 139 °C. `CC(C)(C)OC(=O)c1ncn2c1[C@@H]1CCN1C(=O)c1c(Cl)cccc1-2` gave a melting point of 235 to 236 °C. With `COCn1c(-c2nc3c(OC)ccc(N4CCOCC4)c3s2)nc2ccc(N3CCOCC3)nc21` the melting point was 126 to 128 °C. `COc1cc2cc(CO)c(CO)c(-c3ccnc(NC(C)CCCO)c3)c2cc1OC` (stereo unspecified) showed a melting point of 57 to 61 °C. Molecule `c1ccc(-c2cnccn2)cc1` has a melting point of 69 to 70 °C. Molecule `CC(C)(C)NCC(O)c1ccc(F)cc1` (stereo unspecified) has a melting point of 117 °C. For `Cc1ccc(CCN2CCN(c3noc4ccccc34)CC2)c2c1C(C)(C)CC(=O)N2`, the melting point was 170 °C. In the case of `CCOC(=O)NC(=O)C(F)F`, the melting point is reported as 55 to 57 °C. For `COc1ccc(C(=O)Nc2cc(-c3c(-c4cccc(C)c4)nc4cccnn34)ccn2)cc1`, the melting point was 177 to 178 °C. `CSc1cc(C(C)(C)C)c(O)c(C(=O)O)c1C` gave a melting point of 138 to 139 °C. Molecule `CCCOc1ccccc1-c1nc2cc3ncn(CC4CCCCC4)c3cc2c(=O)[nH]1` has a melting point of 223 to 226 °C. For `CCOC(=O)c1c[nH]c2c(-c3ccncc3)c(-c3ccc(F)cc3)nn2c1=O`, the melting point was > 250 °C. `CC1OC(=O)N(C(=O)NCCCN2CCC(c3ccc(F)cc3)CC2)C1c1ccc(F)c(F)c1` (stereo unspecified) showed a melting point of 108 to 112 °C. Work on `O=C(O)CC(Cn1cnc2c(=O)[nH]cnc21)C(=O)O` (stereo unspecified) yielded a melting point of 130 to 135 °C. Work on `CCCC[C@H](NC(=O)[C@H](CCCCNC(=O)OC(C)(C)C)NC(=O)OCc1ccccc1)C(=O)CSCc1ccco1` yielded a melting point of 60 to 63 °C. With `Cc1nc(N)c2nc(CO)n(NC3CCOCC3)c2c1C` the melting point was > 250 °C. Work on `COc1ccc(-n2nc(Sc3ccc(C)cc3C)c(C)c(C#N)c2=O)cc1` yielded a melting point of 166 to 168 °C. With `O=C(CCO)N[C@H]1CC[C@H](CCN2CCN(c3nccc4c3CCO4)CC2)CC1` the melting point was 173 °C. `CC(=O)N1CC(=O)NC(Cc2cccc(NC(=O)OC(C)(C)C)c2)C1=O` (stereo unspecified) gave a melting point of 189 to 190 °C. `CC(C)(C)NS(=O)(=O)Cc1ccccc1N` gave a melting point of 115 to 117 °C. With `Cc1ccsc1C(=O)c1sc(Nc2ccc(-n3ccnc3)cc2)nc1N` the melting point was > 300 °C. For `CCOC(=O)[C@H](Cc1cc(Cl)c(N)c(Cl)c1)NC(=O)C(F)(F)F`, the melting point was 124 to 125 °C. Molecule `Cc1cccc(C(=O)N(C(=O)c2cccc(C)c2)c2nc3ccccc3c(NCc3ccccc3)c2C#N)c1` has a melting point of 234 °C. Molecule `Cc1cc(C)c2c(c1)c1c(n2Cc2ccc(Cl)cc2)C(CC(=O)O)CCC1` (stereo unspecified) has a melting point of 187 to 188 °C. Molecule `CCOC(=O)C(=CNc1ccc(C)cc1CO)C(=O)OCC` has a melting point of 92 to 95 °C. Molecule `COC(=O)Cc1cccc(NCCCBr)c1` has a melting point of 129 to 130 °C. With `Cc1nc(OCCCC2CO2)cc(-c2ccc(F)cc2)n1` (stereo unspecified) the melting point was 63 to 64 °C. Molecule `CCC(C)CNC(=O)c1cc(NC)cc(C(=O)NCC(C)CC)c1` (stereo unspecified) has a melting point of 160 to 161 °C. Work on `CCOC(=O)C1(C(=O)OCC)C(CC)CC(O)N1C(C)=O` (stereo unspecified) yielded a melting point of 106 to 109 °C. `CNS(=O)(=O)Cc1ccc2[nH]ccc2c1` gave a melting point of 127 to 129 °C. With `O=C(O)c1cncc(-c2ccc3c(C(=O)NCC45CC6CC(CC(C6)C4)C5)c(Cl)ccc3n2)c1` the melting point was 247 °C. For `O=C1c2ccccc2C(O)N1CCBr` (racemic), the melting point was 123 to 124 °C. In the case of `CCNC(=O)c1ccc(C2(C(N)=O)CN(C(=O)OC(C)(C)C)CCc3c2cc(CC)c(CC)c3Cl)cc1` (stereo unspecified), the melting point is reported as 89 to 95 °C. With `CC(=O)NCC1=CC(c2ccccc2)Cc2c1ccc(O)c2O` (stereo unspecified) the melting point was 238 °C. `C[C@H](NC(=O)[C@@H](CC(=O)O)NC(=O)c1ccccc1)C(=O)N1CCC[C@H]1C(=O)O` showed a melting point of 161 to 163 °C. `CCC(=O)OC1(c2ccccc2)CCN(CCN2CNC(=O)c3ccccc32)CC1` showed a melting point of 141 to 144 °C. Molecule `Cc1cc(OCCN2CCc3ccc(NS(C)(=O)=O)cc3CC2)ccc1NS(C)(=O)=O` has a melting point of 173 to 174 °C. `CCCCCCCS(=O)(=O)c1nn2c(=O)c(OC)cnc2s1` gave a melting point of 106 to 109 °C. `COC(=O)c1c(C(=O)OC)c2sc3ccccc3n2c1-c1ccc(F)cc1` gave a melting point of 186 to 187 °C. `Nc1c([N+](=O)[O-])cnn1-c1c(F)c(F)c(C(F)(F)F)c(F)c1F` showed a melting point of 123 to 126 °C. For `CCCCc1csc2ccc3[nH]c4c(c3c12)CNCC4`, the melting point was 224 to 225 °C. `COc1ccc(C(=O)Nc2c(Cl)cncc2Cl)c2c1OC(C)(C)C=C2` showed a melting point of 174 to 178 °C. `O=S(=O)(O)CCCN1CCCc2ccccc21` gave a melting point of 233 to 237 °C. With `CC(C)OC(=O)C1(c2onc(-c3ccc(O)cc3)c2-c2ccccc2)CC1` the melting point was 175 °C. Molecule `CC(C)=NNc1nc(C(Cl)(Cl)Cl)ns1` has a melting point of 66 °C. Molecule `CC(C)CCC1(c2ccccc2)CC(O)=C(Sc2ccccc2)C(=O)O1` (stereo unspecified) has a melting point of 154 to 155 °C. `O=C(O)c1ccc(-c2nc(-c3ccc(C(F)(F)F)cc3)cs2)cc1` showed a melting point of 164 to 165 °C. Molecule `CCOC(=O)c1cc(=O)c2c(OCC(O)COc3ccccc3C)cccc2o1` (stereo unspecified) has a melting point of 75 to 76 °C. `CC1(C)Oc2cc3nonc3cc2C(N2CCC(O[N+](=O)[O-])CC2=O)C1O` (stereo unspecified) gave a melting point of 186 to 189 °C. `CCCCCCCCCCCC/C=C/c1ccc2c(c1)OCO2` gave a melting point of 34 to 36 °C. Molecule `Cn1nnnc1-c1cnc2ccccc2c1O` has a melting point of 318 to 320 °C. `NS(=O)(=O)c1ccc(N2CCN(CC3OCCc4ccccc43)CC2)cc1` (racemic) gave a melting point of 218 °C. With `O=C(O)N[C@@H](CC1CCCCC1)[C@@H](O)[C@@H]1CCCS1` the melting point was 118 to 119 °C. Molecule `COC(=O)c1c(F)cc(OCCNC(=O)C2Cc3ccccc3N2S(=O)(=O)c2ccc(-c3ccc(F)cc3C)cc2)cc1F` (stereo unspecified) has a melting point of 65 to 72 °C. In the case of `Nc1cnc2cc(F)c(F)cc2c1`, the melting point is reported as 155 °C. Work on `COc1ccc(C(=O)NNC(C)=O)cc1` yielded a melting point of 146 to 148 °C. `CC(=O)c1cc2c(cc1O)CCCC2` showed a melting point of 70 to 72 °C. With `CCCCCCc1cn(CC2OC(n3cnc4c(NCc5ccc(OC)cc5)ncnc43)C(O)C2O)nn1` (stereo unspecified) the melting point was 101 to 102 °C. In the case of `CC(C)(C)c1ccc(NC(=O)OCC2(COC(=O)Nc3ccc(C(C)(C)C)cc3)CSc3ccccc3C2=O)cc1`, the melting point is reported as 78 to 85 °C. In the case of `CCCCc1nc2cccc(C(=O)OC)c2n1Cc1ccc(-n2cccc2C#N)cc1`, the melting point is reported as 128 to 129 °C. Work on `CCOC(=O)C(Cc1c[nH]c2cc(Cl)cc(Cl)c12)=NO` yielded a melting point of 175 to 176 °C. Work on `COc1ccc(Cl)cc1C(=O)NCCc1ccc(CC2SC(=O)NC2=O)cc1` (stereo unspecified) yielded a melting point of 182 °C. `CCOc1cc(OC(C)C)ccc1-c1nc(-c2ccc(OC(C)C)cc2O)nc(-c2ccc(OC(C)C)cc2O)n1` showed a melting point of 163 to 167 °C. Work on `CCCCNC(=O)N(C)c1cccc(-c2ccc(C=C(OCC)C(=O)O)cc2)c1` yielded a melting point of 126 °C. For `CC(=O)OC1CSC(Oc2cccnc2F)C(OC(C)=O)C1OC(C)=O` (stereo unspecified), the melting point was 160 °C. Work on `COC(=O)Nc1cc(-c2nccs2)[nH]c1C(CC1CCOCC1)c1ccc(S(=O)(=O)C2CC2)cc1` (stereo unspecified) yielded a melting point of 120 to 122 °C. `c1ccc(Cn2cnc3c(OC4CN5CCC4CC5)nccc32)cc1` (stereo unspecified) gave a melting point of 162 to 183 °C. Work on `CCOCCOCCn1c(C=O)cc2c3c(c(-c4ccccc4Cl)cc21)C(=O)NC3=O` yielded a melting point of 162 to 165 °C. `COc1ccc(C(NCC(=O)Nc2c(C(C)C)cccc2C(C)C)c2ccc(OC)cc2)cc1` gave a melting point of 84 to 85 °C. For `CC(C)(C)CC(C)(C)NC(=O)Nc1ccccc1CCc1cc(C(C)(C)C)c(O)c(C(C)(C)C)c1`, the melting point was 168 to 169 °C. For `COCCOc1ccc(CCCOc2cc(CCC(=O)O)n(C)n2)c(Oc2ncc(C(F)(F)F)cc2Cl)c1`, the melting point was 114 to 115 °C.

Source: a melting point compilation (Tetko et al.; mined from patent text by program, amines drawn as free bases though some values may be those of a salt)
